By IC50 is commonly meant the point on the concentration scale where inhibition reaches its midpoint.

Each structure is given as a SMILES string.

In one experiment the test system is PC-9 cells. Nature of the experiment: PC9 proliferation assay. It counts as cell-based, human. The note with it: Homo sapiens, PC-9, PC9; read-out: PC9 Prolif IC50 (G12V).
For a further experiment, the system named is SW480 cells. Put plainly: SW480 proliferation assay. The format is cell-based. The note with it: Homo sapiens, SW480, SW480; read-out: SW480 Prolif IC50 (G12V).

On to `COC(C)(C)COc1nc2c3c(c(Cl)c(-c4nc(N)cc(C)c4C(F)(F)F)c(F)c3n1)OCCN2[C@H](C)c1cccnc1N` (atropisomer, axis not shown) [Example 110a, 6-((R)-4-((R)-1-(2-aminopyridin-3-yl)ethyl)-8-chloro-10-fluoro-2-(2-methoxy-2-methylpropoxy)-5,6-dihydro-4H-[1,4]oxazepino[5,6,7-de]quinazolin-9-yl)-4-methyl-5-(trifluoromethyl)pyridin-2-amine], for which the IC50 in the experiment with PC-9 cells turned out to be 11 µM; with SW480 cells, 0.098 µM.

As for `Cc1cc(N)nc(-c2cc3nc(OCC45COC(C4)C5)nc4c3c(c2Cl)OCCN4Cc2cccnc2N)c1C(F)(F)F` [Example 36, 6-(2-((2-oxabicyclo[2.1.1]hexan-4-yl)methoxy)-4-((2-aminopyridin-3-yl)methyl)-8-chloro-5,6-dihydro-4H-[1,4]oxazepino[5,6,7-de]quinazolin-9-yl)-4-methyl-5-(trifluoromethyl)pyridin-2-amine], the IC50 with PC-9 cells worked out at 20 µM; in the experiment with SW480 cells, 8.2 µM.

As for `Cc1cc(N)nc(-c2c(Cl)c3c4c(nc(OCCN5CCOCC5)nc4c2F)N([C@H](C)c2cccnc2N)CCO3)c1C(F)(F)F` (atropisomer, axis not shown) [Example 138, 6-((R)-4-((R)-1-(2-aminopyridin-3-yl)ethyl)-8-chloro-10-fluoro-2-(2-morpholinoethoxy)-5,6-dihydro-4H-[1,4]oxazepino[5,6,7-de]quinazolin-9-yl)-4-methyl-5-(trifluoromethyl)pyridin-2-amine], the IC50 amounted to 4.9 µM with PC-9 cells and 0.077 µM in the experiment with SW480 cells.

With `Cc1cc(N)nc(-c2cc3nc(OC[C@@]45CCCN4CC(F)(F)C5)nc4c3c(c2Cl)OCCN4Cc2cccnc2N)c1C(F)(F)F` [Example 34, (S)-6-(4-((2-aminopyridin-3-yl)methyl)-8-chloro-2-((2,2-difluorotetrahydro-1H-pyrrolizin-7a(5H)-yl)methoxy)-5,6-dihydro-4H-[1,4]oxazepino[5,6,7-de]quinazolin-9-yl)-4-methyl-5-(trifluoromethyl)pyridin-2-amine], the IC50 in the experiment on PC-9 cells worked out at 4 µM; with SW480 cells, 0.82 µM.

Take `Cc1cc(N)nc(-c2c(Cl)c3c4c(nc(OCC56CC(CO5)C6)nc4c2F)N([C@H](C)c2cccnc2N)CCO3)c1C(F)(F)F` [Example 143, 6-((R)-2-((2-oxabicyclo[2.1.1]hexan-1-yl)methoxy)-4-((R)-1-(2-aminopyridin-3-yl)ethyl)-8-chloro-10-fluoro-5,6-dihydro-4H-[1,4]oxazepino[5,6,7-de]quinazolin-9-yl)-4-methyl-5-(trifluoromethyl)pyridin-2-amine]: the IC50 in the experiment with PC-9 cells stood at 10 µM; with SW480 cells it was 0.094 µM.

With `COC1(CCOc2nc3c4c(c(Cl)c(-c5nc(N)cc(C)c5C(F)(F)F)c(F)c4n2)OCCN3[C@H](C)c2cccnc2N)CCC1` (atropisomer, axis not shown) [Example 150, 6-((R)-4-((R)-1-(2-aminopyridin-3-yl)ethyl)-8-chloro-10-fluoro-2-(2-(1-methoxycyclobutyl)ethoxy)-5,6-dihydro-4H-[1,4]oxazepino[5,6,7-de]quinazolin-9-yl)-4-methyl-5-(trifluoromethyl)pyridin-2-amine], the results for the IC50 with PC-9 cells and with SW480 cells were 8.9 µM and 0.79 µM, respectively.

For `Cc1cc(N)nc(-c2c(Cl)c3c4c(nc(OC[C@@]56CCCN5C[C@H](F)C6)nc4c2F)N([C@H](C)c2ccnnc2N)CCO3)c1C(F)(F)F` (atropisomer, axis not shown) [Example 133c], the IC50 in the experiment on PC-9 cells was 7.1 µM; in the experiment with SW480 cells, 0.025 µM.

For the molecule `Cc1cc(N)nc(-c2cc3nc(OC[C@]45CCCN4CC(F)(F)C5)nc4c3c(c2Cl)OCCN4Cc2cccnc2N)c1C(F)(F)F` [Example 50, (R)-6-(4-((2-aminopyridin-3-yl)methyl)-8-chloro-2-((2,2-difluorotetrahydro-1H-pyrrolizin-7a(5H)-yl)methoxy)-5,6-dihydro-4H-[1,4]oxazepino[5,6,7-de]quinazolin-9-yl)-4-methyl-5-(trifluoromethyl)pyridin-2-amine], the IC50 with PC-9 cells was found to be 6.7 µM; in the experiment on SW480 cells, 0.93 µM.

The values above are taken from US20240383915A1, “OXAZEPINE COMPOUNDS AND USES THEREOF IN THE TREATMENT OF CANCER” (Genentech, Inc., priority 2021, published 2024).
